Experiment [1] deals with cholestérol sérique. The experiment is described as follows: Serum cholesterol (area under curve) measured periodically during the 14-week apoE-deficient mouse trial. Format: in vivo, souris. The conditions noted are these: for AUC (aire sous courbe du cholestérol): whole 14 weeks of the trial. The text has this: (§1) L'activité antiathéromateuse des composés selon l'invention a été mise en évidence sur des souris femelles, déficientes en apolipoprotéine E (homozygotes). Selon le protocole de ce test, le produit à évaluer est administré dans la nourriture (régime alimentaire standard) pendant 14 semaines. Après ce laps de temps, les souris sont euthanasiées et le coeur et la crosse aortique sont prélevés. Les surfaces lésées sont évaluées selon la méthode décrite dans Arteriosclerosis, 1990, 10, p. 316-323.
Durant les 14 semaines de l'essai décrit ci-dessus dans le but d'évaluer les propriétés antiathéromateuses des composés, on a mesuré périodiquement le taux de cholestérol sérique des souris traitées et des souris témoins, et le résultat est exprimé sous la forme aire sous courbe (AUC) du cholestérol pendant toute la durée de l'essai. Les résultats obtenus avec le composé de l'exemple 2 sont reportés dans le tableau II où AUC représente l'aire sous courbe (exprimée en g.jour.1^-1) et la variation (en pourcentage) est appréciée par rapport au groupe témoin. Tableau II

In experiment [2] the test system is souris femelles, déficientes en apolipoprotéine E (homozygotes). The experiment can be described thus: Antiatheromatous activity in apolipoprotein E-deficient mice: lesion surface after 14 weeks of compound in the food. Format: in vivo. The settings on record: 300 mg/kg in the food, versus untreated control mice.
Text: as §1
Le tableau I présente les résultats obtenus selon ce test pratiqué avec le composé de l'exemple 2 à différentes doses. Les résultats sont exprimés en pourcentage de réduction de la surface des plaques d'athérome, par rapport à un groupe de souris témoin non traitées. Tableau I

SMILES strings stand for the structures.

For the compound `N#Cc1ccc(C(=O)c2ccc(S[C@H]3SC[C@@H](O)[C@H](O)[C@H]3O)cc2)cc1` [Exemple 2, [4-(4-cyanobenzoyl)phényl] 1,5-dithio-α-D-xylopyranoside], the “variation (%) de l'AUC du cholestérol” value in experiment [1] (10 mg/kg, versus control group) is 0%. Also, the “AUC (aire sous courbe du cholestérol)” value in experiment [1] (10 mg/kg) is recorded as 585 ± 15 g.jour.1^-1; in experiment [1] (100 mg/kg), 507 ± 16 g.jour.1^-1; in experiment [1] (300 mg/kg), 505 ± 20 g.jour.1^-1.

Consider `N#Cc1ccc(C(=O)c2ccc(S[C@@H]3SC[C@@H](O)[C@H](O)[C@H]3O)cc2)cc1` [[4-(4-cyanobenzoyl)phényl] 1,5-dithio-β-D-xylopyranoside], for which the “Réduction (%) de la surface des plaques d'athérome” value in experiment [2] was 30%.

The values are drawn from patent EP1090017B1, “NOVEL COMPOUNDS DERIVED FROM ALPHA-D-XYLOSE, PREPARATION METHOD AND THERAPEUTIC USE” (FOURNIER INDUSTRIE ET SANTE, priority 1998, dated 1999).
